# Measured values reported in a melting point compilation (Tetko et al.; mined from patent text by program, amines drawn as free bases though some values may be those of a salt).
row,Structure (SMILES),melting point [°C]
1,COc1ccc2c(c1)C(N1CCCC1=O)NN=C2Cc1c(Cl)cncc1Cl (stereo unspecified),223 to 225
2,O=C(c1ccc(-c2ccccc2)cc1)c1cccc(C(=O)c2ccc(-c3ccccc3)cc2)c1,182 to 186
3,Cc1cccc([C@@H]2C[C@H]3C=C(c4c[nH]c(-c5ccc(F)cc5)c4-c4ccncc4)CCN3C2)c1,204 to 206
4,O=C1N[C@@H](c2ccccc2)[C@H]1O,175 to 180
5,Cn1cc(-c2ccccc2)c(=O)c(-c2cccc(F)c2)c1,134
6,C=C(C)C(=O)OCCc1ccc(N(C)C)cc1,42 to 43
7,CCCC=Cc1c(C(C)C)nc(C(C)C)c(CO)c1-c1cccc(Cl)c1,101 to 104
8,OC1Cc2c(I)cccc2CC1N1CCC(c2ccccc2)CC1 (stereo unspecified),194
9,CC(C)c1nc2cc(COc3ccc(C=O)cc3)ccc2o1,86 to 88
10,COC1C(CO)OC(n2c3ccc(CO)cc3c3c4c(c5c6cc(CO)ccc6[nH]c5c32)C(=O)NC4=O)C(O)C1O (stereo unspecified),> 300
11,O=C(O)CNC(=O)c1c(Cl)cc(N2C(=O)N3CCCC3(Cc3ccc(Br)cc3)C2=O)cc1Cl (stereo unspecified),157 to 158
12,COc1cc2c(cc1OC)-c1cc(=O)n(C(C)C)c(=O)n1CC2,190 to 192
13,COc1ccnc(CSc2nc3cc(C(F)(F)F)ccc3[nH]2)c1C,148
14,Cc1nc2ccsc2c(=O)n1-c1ccccc1Cl,118 to 121
15,CC(=O)c1cccc(NC(=O)c2cc(C(N)=O)cc(C(=O)N(c3cccc(C(C)=O)c3)c3cccc(C(C)=O)c3)c2)c1,270
16,COc1ccc(Cl)cc1N1CCN(CCNc2nccc(C(=O)N3CCC(Nc4nc(=O)cc[nH]4)CC3)n2)CC1,114 to 117
17,C[C@H](NC(=O)OC(C)(C)C)C(=O)N[C@H](CCC(=O)O)C(N)=O,98
18,CCOC(=O)C1=C(C)NC(N)=C(C(=O)OCC)C1C (stereo unspecified),140
19,O=C(O)COCCCCN(c1cnc(-c2ccccc2)c(-c2ccccc2)n1)C1CCCCC1,130 to 131
20,Cc1ccc(-c2cn(C)c(-c3ccc4c(c3)C(C)(C)c3ccccc3-4)n2)s1,188 to 191
21,CCCCC1(N(C)C)CCC(c2[nH]c3ccccc3c2C)(c2[nH]c3ccccc3c2CCN)CC1 (stereo unspecified),105 to 112
22,Clc1ccc2nc(CN3CCC(c4ccccc4)CC3)cn2c1,132 to 133
23,O=C(O)c1ccc(C(=O)/C=C/c2cc(-c3cccs3)ccc2N2CCCC2)cc1,208 to 209
24,Clc1cccc(CCC2(Cn3ccnc3)SCCS2)c1,224 to 227

row,Structure (SMILES),melting point [°C]
1,Cc1cc(-c2cc(C(F)F)n3ncc(C(=O)Nc4nc(C)c(S(=O)(=O)NC(C)(C)CO)s4)c3n2)ccc1C(F)(F)F,271
2,O=C(Nc1ccc(N2CCN(C(=O)C(O)c3ccccc3Cl)CC2)nc1)Nc1ccccc1F (stereo unspecified),127 to 128
3,O=C1N[C@H]2CCN(C(=O)OCc3ccccc3)[C@H]2[C@H]1C1CC1 (relative stereo),141 to 149
4,OC1CN(CCC#Cc2ccccc2)CCC1c1cccc(C(F)(F)F)c1 (stereo unspecified),77 to 79
5,NC1C(O)C(CO)OC1n1ccc(=O)[nH]c1=O (stereo unspecified),197 to 199
6,N#CC1CCn2c(cc3ccccc32)C1 (stereo unspecified),116 to 118
7,COC(=O)c1ccc(OCCCNC(=O)C[C@H]2O[C@H](c3cccc(OC)c3OC)c3cc(Cl)ccc3N(CC(C)(C)CO)C2=O)cc1,147 to 149
8,Brc1ncnn1C(c1ccccc1)(c1ccccc1)c1ccccc1,239 to 241
9,CCCCCCCCCCCCCCCCCCCCOC(=O)P(=O)(OC)OC,53 to 54
10,OCCCC(=C(c1ccccc1)c1ccccc1)c1ccccc1,128 to 130
11,c1ccc(C2SCCCS2)cc1,72 to 73
12,COC(=O)c1ccc2nn(-c3cc(C(C)(C)CC(C)(C)C)cc(C(C)(C)c4ccccc4)c3O)nc2c1,141 to 143
13,CCCCc1ccc(Cn2cc(C3c4ccccc4C=Cc4ccccc43)c(=S)[nH]c2=O)cc1C(=O)O,230
14,Cc1nc(N2C[C@@H](C)C[C@H](C)C2)c2nc(-c3ccccc3)cc-2[nH]1 (relative stereo),226 to 227
15,CS(=O)(=O)Nc1cc(C(=O)O)c2c(c1)C(C(=O)O)CCN2 (stereo unspecified),188 to 190
16,C/C(=C\C(=O)O)c1cnn(C)c1-c1ccc(F)cc1,123 to 124
17,CC(C)(C)C(NC(=O)c1cccc(F)c1)Nc1c(Nc2cccnc2)c(=O)c1=O (stereo unspecified),231 to 232
18,COc1nc(N)nn1C,177 to 180
19,COc1ccc2c(c1)CCC1C2CCC2(C)C(=O)C=C(C(C)C)C12 (stereo unspecified),113 to 116
20,O=C(O)c1ccccc1OCCNC(=O)C1Cc2ccccc2N1S(=O)(=O)c1ccc(-c2cccc(C(F)(F)F)c2)cc1 (stereo unspecified),70
21,COC(=O)c1ccc(OC)c2cc(OC)ccc12,102 to 104
22,O=C1NC(=O)C(Cc2ccc(OCCON3C(=O)c4ccccc4C3=O)cc2)S1 (stereo unspecified),146 to 147
23,CC(=O)Oc1ccccc1Cn1nnnc1-c1cccc(Cl)c1Cl,195 to 196

# The next lines start with the values.
row,melting point [°C],Structure (SMILES)
1,175,CC(C)c1ccc(NC(=O)OC(C)(C)C)c(C(=O)O)c1
2,142,Cc1nc[nH]c1CSCCNC(=C[N+](=O)[O-])NN
3,102 to 103,S=c1sc2ccccc2n1CNc1ccccc1
4,198 to 200,CC(=O)OC1CSC(Oc2ccc(-c3cccnc3C)nc2)C(OC(C)=O)C1OC(C)=O (stereo unspecified)
5,245,"CC(c1ccccc1)N(C=O)C(C#N)C=O (single isomer, unassigned; (+))"
6,242 to 245,O=C1NC(=O)C(=Cc2ccc(OCCNc3nc4ccccc4o3)cc2)S1
7,235,Cc1c(C(=O)Nc2ccc(N3CCN(C4CCOCC4)CC3)c(C#N)c2)cnn1-c1ccc(F)c(F)c1
8,106 to 108,CCOC(=O)C(=NNc1ccc(C)cc1C)C(C)=O
9,163 to 165,COc1cc2c(cc1C(C)=O)sc1ccccc12
10,> 270,O=C(c1cc2cc3[nH]c(=O)[nH]c3cc2[nH]1)N1CCC(Cc2ccccc2)CC1
11,164 to 165,O=C(NC1CCCc2ccccc21)c1ccc2cnccc2n1 (stereo unspecified)
12,244 to 245,CNS(=O)(=O)c1ccc2c(c1)S(=O)(=O)NC1CCCN21 (stereo unspecified)
13,103 to 105,O=C(O)Cc1cccc(Oc2ccccc2Cl)c1O
14,138 to 140,CCN(C(=O)Cc1ccc(S(C)(=O)=O)cc1)C1CCN(C(=O)OC(C)(C)C)CC1
15,144 to 145,CCOc1ccc(-c2nc(-c3cc(C(=O)OC)c4oc(C)cc4c3)cs2)cc1OCC
16,80 to 81,Cc1ccc(S(=O)(=O)N(C)c2ccc(Cl)nn2)cc1
17,182 to 184,N#Cc1ccc2c(c1)c(CCN1C(=O)c3ccccc3C1=O)cn2Cc1ccccc1
18,136,CC(C)CCCC(=O)OC1c2ccccc2C(=O)N1c1ccc2ccc(Br)nc2n1 (stereo unspecified)
19,44 to 46,COc1cc(F)c(F)cc1OCCN
20,211,O=C1CCC(c2ccccc2)(c2ccccc2)[C@@H]2CN(C(=O)CC3=CSCSC3)C[C@H]12 (racemic)
21,163 to 165,CN1CC=C(c2cnn3c(-c4cccc(NC(=O)c5cccc(C(F)(F)F)c5)c4)ccnc23)CC1
22,304 to 306,O=C(Nc1ccc(-c2ncc(-c3ccc(NC(=O)C4CCCCCC4)cc3)[nH]2)cc1)c1ccc(Cl)c(Cl)c1
23,179,CC(=O)C1Cc2c(nc3ccccc3c2C)C(N2CCOCC2)CN1 (stereo unspecified)
24,247 to 249,CC1(C)CCC(C)(C)c2c1ccc(C=Nc1ccc(C(N)=O)cc1)c2N
25,272 to 277,CNC(=O)c1ccc(C=CC(=O)Nc2cccc(-c3ccc(C)c(CO)c3C)c2)cc1

row,melting point [°C],Structure (SMILES)
1,105 to 107,CCOC(=O)c1ccc(-c2ccc(-c3ccccc3)c(-c3ccc4c(c3)C(C)(C)CCC4(C)C)c2)nc1
2,118 to 119,Cc1ncccc1CC(=NC#N)NC(NC(=O)Cc1ccc(Cl)cc1)C(C)(C)C (stereo unspecified)
3,81 to 83,CN(CCCCc1ccccc1)CCCc1ccccc1
4,263 to 264,CCNC(=O)Nc1cc(-c2c(-c3ccc(F)c(C)c3)nc3ccc(NC)nn23)ccn1
5,222 to 224,CCCCSc1cc(C(=O)O)cc(S(N)(=O)=O)c1Oc1ccccc1
6,115,CC#CCOc1ccc(S(=O)(=O)C2(C(=O)NO)CCN(Cc3cccnc3)CC2)cc1
7,179 to 181,O=Cc1cc(C#Cc2ccccc2)c(C=O)cc1C#Cc1ccccc1
8,84 to 85,O=C1N(Cc2ccccn2)c2ccccc2C12COc1cc3c(cc12)CCO3 (stereo unspecified)
9,135,Cc1c([N+](=O)[O-])ccc2c1SC1(Cl)C=C(C(F)(F)F)C=C(Cl)C1O2 (stereo unspecified)
10,136 to 138,CCCNC(=O)C1(CCCN2CCC(N3Cc4ccccc4C3=O)CC2)c2ccccc2-c2ccccc21
11,216 to 217,O=C(O)CCC1c2ccccc2-c2ccccc21
12,164 to 165,CCOC1=CC2=CCc3cc(C#N)ccc3[C@]2(Cc2ccccc2)CC1
13,106 to 109,CCc1ccsc1C(=O)O
14,167 to 171,CC(C)n1nc(-c2ccc(N)nc2-c2ccccc2)ccc1=O
15,137 to 139,c1ccc(C(OC2CCN(c3ccc4ncnn4n3)CC2)c2ccccc2)cc1
16,80 to 82,Cc1cc2ncnn2nc1OCCOCCN1CCC(OC(c2ccccc2)c2ccccc2)CC1
17,213 to 216,COc1cc(C(=O)C=Cc2cc(O)c(O)c([N+](=O)[O-])c2)cc(OC)c1OC
18,156 to 160,CNC(=O)c1ccc(Br)c2nsnc12
19,129 to 132,O=Cc1cc(Br)ccc1Oc1ccc(Cl)c(Cl)c1
20,236 to 237,O=C(c1ccccc1)c1ccc2nc3c(C(=O)O)cccc3nc2c1
21,119 to 120,CCN1C(=O)NC(=O)C1O (stereo unspecified)
22,230,Cc1c(C(=O)Nc2ccc(N3CCN(C4CCOCC4)CC3)c(C#N)c2)cnn1-c1cccc(Cl)c1
23,220 to 221,CCOCc1nc2c(N)nc3cc(-c4ccncc4)ccc3c2n1CC(C)(C)O
24,74 to 76,N#CCOC(=O)c1cc2ccccc2o1
